Reference: US20020019527A1 (priority 2000, published 2002)
Where a name gives a salt, the structure may show the parent alone. Read-outs that look alike come from different tables or passages of the source.

Target: T1, Farnesyltransferase (FTase) (Bos taurus, UniProt P29702+P49355)
T1 construct: precipitation from a beef brain homogenate; from tissue; host or cells: bovine brain
Test: Farnesyltransferase inhibition (scintillation proximity assay, [3H]-FPP / biotin-K-ras peptide)
Assay type: biochemical, bovine
Description: Farnesyltransferase (FTase) or geranylgeranyltransferase I (GGTase I) fractions were isolated from bovine brains and purified by a series of methods which separate FTase from GGTase I and GGTase I from GGTase II. The methods involved a partial purification of all three enzymes by precipitation from a beef brain homogenate with 30% to 50% saturated […] followed by chromatography on DEAE Sepharose. […] The catalytic purity of each enzyme was assayed separately with substrate acceptor proteins specific for that enzyme. After quickly freezing in liquid nitrogen, the various prenyl transferases were stored at −80° C.
The quenched reactions stood for 1 hour before analysis in a Packard TopCount scintillation counter. Purified compounds were dissolved in 100% ethanol and diluted 10-fold into the assay.

[1] = compound at 10^−6 M, bovine FTase, 37° C., 30 minutes

T1 sequence (P49355 whole entry, one chain of several): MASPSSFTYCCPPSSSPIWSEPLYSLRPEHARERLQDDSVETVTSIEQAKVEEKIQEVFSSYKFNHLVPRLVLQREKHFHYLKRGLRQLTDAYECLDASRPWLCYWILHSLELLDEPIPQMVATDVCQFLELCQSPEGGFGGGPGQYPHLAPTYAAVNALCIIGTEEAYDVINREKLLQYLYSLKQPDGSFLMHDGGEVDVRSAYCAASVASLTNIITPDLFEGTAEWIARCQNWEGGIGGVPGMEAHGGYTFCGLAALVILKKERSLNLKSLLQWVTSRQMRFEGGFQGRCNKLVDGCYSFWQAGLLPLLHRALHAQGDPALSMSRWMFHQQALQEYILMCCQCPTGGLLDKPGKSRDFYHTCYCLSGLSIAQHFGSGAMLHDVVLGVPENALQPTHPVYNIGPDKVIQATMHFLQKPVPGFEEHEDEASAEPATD

Row | SMILES | inhibition at 1 µM [1] | further results
1 | Cc1ccccc1-c1cc(N(Cc2ccccc2)Cc2cnc[nH]2)ccc1C#N [Example 270, 5-(benzyl(1H-imidazol-5-ylmethyl)amino)-2′-methyl(1,1′-biphenyl)-2-carbonitrile] | 100% | 
2 | Cn1cncc1C(OCc1cccc(C(F)(F)F)c1)c1ccc(C#N)c(-c2cccc3ccccc23)c1 (stereo not shown) [Example 68, 4-((1-methyl-1H-imidazol-5-yl)((3-(trifluoromethyl)benzyl)oxy)methyl)-2-(1-naphthyl)benzonitrile hydrochloride] | 100% | 
3 | COc1cc(COC(c2ccc(C#N)c(-c3ccccc3C)c2)c2cncn2C)cc(OC)c1 (stereo not shown) [Example 150, 5-(((3,5-dimethoxybenzyl)oxy)(1-methyl-1H-imidazol-5-yl)methyl)-2′-methyl(1,1′-biphenyl)-2-carbonitrile hydrochloride] | 93% | 
4 | CCCCCCN(Cc1cncn1C)c1ccc(C#N)c(-c2cccc3ccccc23)c1 [Example 233, 4-(hexyl((1-methyl-1H-imidazol-5-yl)methyl)amino)-2-(1-naphthyl)benzonitrile] | 100% | 
5 | Cc1ccccc1-c1cc(C(OCc2ccccc2F)c2cncn2C)ccc1C#N (stereo not shown) [Example 138, 5-(((2-fluorobenzyl)oxy)(1-methyl-1H-imidazol-5-yl)methyl)-2′-methyl(1,1′-biphenyl)-2-carbonitrile hydrochloride] | 92% | 
6 | Cn1cncc1C(NCc1ccc(Cl)c(Cl)c1)c1ccc(C#N)c(-c2cccc3ccccc23)c1 (stereo not shown) [Example 47, 4-(((3,4-dichlorobenzyl)amino)(1-methyl-1H-imidazol-5-yl)methyl)-2-(1-naphthyl)benzonitrile] | 100% | 
7 | CN(Cc1cncn1C)c1ccc(C#N)c(-c2cccc3ccccc23)c1 [Example 227, 4-(methyl((1-methyl-1H-imidazol-5-yl)methyl)amino)-2-(1-naphthyl)benzonitrile] | 100% | 
8 | Cn1cncc1C(OCc1ccc(C#N)cc1)c1ccc(C#N)c(-c2cccc(Cl)c2Cl)c1 (stereo not shown) [Example 279, 2′,3′-dichloro-5-(((4-cyanobenzyl)oxy)(1-methyl-1H-imidazol-5-yl)methyl)(1,1′-biphenyl)-2-carbonitrile hydrochloride] | 99% | 
9 | Cn1cncc1CN(Cc1ccc(C(=O)O)cc1)c1ccc(C#N)c(-c2cccc3ccccc23)c1 [Example 269, 4-((4-cyano((1-methyl-1H-imidazol-5-yl)methyl)-3-(1-naphthyl)anilino)methyl)benzoic acid] |  | % Inhibition at 10^−6M [1]: 100%
10 | Cc1ccccc1-c1cc(C(OCc2ccc(OC(F)(F)F)cc2)c2cncn2C)ccc1C#N.Cl (stereo not shown) [Example 180] |  | % Inhibition at 10^−6M: 95%
11 | Cc1ccccc1-c1cc(C(OCc2ccc(Br)cc2)c2cncn2C)ccc1C#N (stereo not shown) [Example 119, 5-(((4-bromobenzyl)oxy)(1-methyl-1H-imidazol-5-yl)methyl)-2′-methyl(1,1′-biphenyl)-2-carbonitrile hydrochloride] | 93% | 
12 | Cn1cncc1C(O)(C#Cc1ccccc1)c1ccc(C#N)c(-c2cccc3ccccc23)c1 (stereo not shown) [Example 111, 4-(1-hydroxy-1-(1-methyl-1H-imidazol-5-yl)-3-phenyl-2-propynyl)-2-(1-naphthyl)benzonitrile] | 100% | 
13 | Cc1ccccc1-c1cc(C(OCc2cnc(Cl)c(Cl)c2)c2cncn2C)ccc1C#N (stereo not shown) [Example 181, 5-(((5,6-dichloro-3-pyridinyl)methoxy)(1-methyl-1H-imidazol-5-yl)methyl)-2′-methyl(1,1′-biphenyl)-2-carbonitrile hydrochloride] | 93% | 
14 | Cc1ccccc1-c1cc(C(OCc2ccccc2)c2cncn2C)ccc1C#N (stereo not shown) [Example 11, 5-((benzyloxy)(1-methyl-1H-imidazol-5-yl)methyl)-2′-methyl(1,1′-biphenyl)-2-carbonitrile hydrochloride] | 94% | 
15 | Cc1ccccc1-c1cc(C(OCc2ccc(C(=O)N(C)C)cc2)c2cncn2C)ccc1C#N (stereo not shown) [Example 190, 4-(((6-cyano-2′-methyl(1,1′-biphenyl)-3-yl)(1-methyl-1H-imidazol-5-yl)methoxy)methyl)-N,N-dimethylbenzamide] | 90% | 
16 | Cn1cncc1C(NC1CCN(C(=O)OCc2ccccc2)CC1)c1ccc(C#N)c(-c2cccc3ccccc23)c1 (stereo not shown) [Example 54, benzyl 4-(((4-cyano-3-(1-naphthyl)phenyl)(1-methyl-1H-imidazol-5-yl)methyl)amino)-1-piperidinecarboxylate dihydrochloride] | 100% | 
17 | Cn1cncc1C(c1ccc(C#N)c(-c2cccc3ccccc23)c1)S(=O)(=O)Cc1ccc(C#N)cc1 (stereo not shown) [Example 71, 4-(((4-cyanobenzyl)sulfonyl)(1-methyl-1H-imidazol-5-yl)methyl)-2-(1-naphthyl)benzonitrile hydrochloride] | 100% | 

Row | SMILES | inhibition at 1 µM [1] | further results
18 | N#Cc1ccc(COC(c2ccc(C#N)c(-c3cccc4ccccc34)c2)c2cn(C(c3ccccc3)(c3ccccc3)c3ccccc3)cn2)cc1 (stereo not shown) [Example 49, 4-(((4-cyanobenzyl)oxy)(1-trityl-1H-imidazol-4-yl)methyl)-2-(1-naphthyl)benzonitrile] | 62% | 
19 | Cc1cccc(-c2cc(C(OCc3ccccc3)c3cncn3C)ccc2C#N)c1 (stereo not shown) [Example 91, 5-((benzyloxy)(1-methyl-1H-imidazol-5-yl)methyl)-3′-methyl(1,1′-biphenyl)-2-carbonitrile hydrochloride] | 94% | 
20 | Cc1ccccc1-c1cc(C(Cn2ccnc2)OCc2ccccc2)ccc1C#N (stereo not shown) [Example 210, 5-(1-(benzyloxy)-2-(1H-imidazol-1-yl)ethyl)-2′-methyl(1,1′-biphenyl)-2-carbonitrile hydrochloride] | 48% | 
21 | Cc1ccccc1-c1cc(C(OCc2ccc(F)cc2C(F)(F)F)c2cncn2C)ccc1C#N (stereo not shown) [Example 141, 5-(((4-fluoro-2-(trifluoromethyl)benzyl)oxy)(1-methyl-1H-imidazol-5-yl)methyl)-2′-methyl(1,1′-biphenyl)-2-carbonitrile hydrochloride] | 95% | 
22 | Cc1ccccc1-c1cc(N(Cc2ccc(C#N)cc2)Cc2cncn2C)ccc1C#N [Example 229, 5-((4-cyanobenzyl)((1-methyl-1H-imidazol-5-yl)methyl)amino)-2′-methyl(1,1′-biphenyl)-2-carbonitrile] | 100% | 
23 | Cn1cncc1C(OCc1ccccc1)c1ccc(C#N)c(-c2ccccc2)c1 (stereo not shown) [Example 87, 5-((benzyloxy)(1-methyl-1H-imidazol-5-yl)methyl)(1,1′-biphenyl)-2-carbonitrile hydrochloride] | 89% | 
24 | Cc1ccccc1-c1cc(NCc2cncn2C)ccc1C#N [Example 225, 2′-methyl-5-(((1-methyl-1H-imidazol-5-yl)methyl)amino)(1,1′-biphenyl)-2-carbonitrile] | 50% | 
25 | Cc1ccccc1-c1cc(C(OCc2ccc(OCc3ccccc3)cc2)c2cncn2C)ccc1C#N (stereo not shown) [Example 155, 5-(((4-(benzyloxy)benzyl)oxy)(1-methyl-1H-imidazol-5-yl)methyl)-2′-methyl(1,1′-biphenyl)-2-carbonitrile hydrochloride] | 92% | 
26 | Cc1ccccc1-c1cc(C(OCc2ccc(I)cc2)c2cncn2C)ccc1C#N (stereo not shown) [Example 160, 5-(((4-iodobenzyl)oxy)(1-methyl-1H-imidazol-5-yl)methyl)-2′-methyl(1,1′-biphenyl)-2-carbonitrile hydrochloride] | 96% | 
27 | Cc1ccccc1-c1cc(C(OCc2ccc(Cl)cc2Cl)c2cncn2C)ccc1C#N (stereo not shown) [Example 157, 5-(((2,4-dichlorobenzyl)oxy)(1-methyl-1H-imidazol-5-yl)methyl)-2′-methyl(1,1′-biphenyl)-2-carbonitrile hydrochloride] | 97% | 
28 | Cc1ccccc1-c1cc(N(Cc2cncn2C)C(=O)c2ccccc2)ccc1C#N [Example 236, N-(6-cyano-2′-methyl(1,1′-biphenyl)-3-yl)-N-((1-methyl-1H-imidazol-5-yl)methyl)benzamide] | 93% | 
29 | COc1ccc([N+](=O)[O-])cc1COC(c1ccc(C#N)c(-c2ccccc2C)c1)c1cncn1C (stereo not shown) [Example 122, 5-(((2-methoxy-5-nitrobenzyl)oxy)(1-methyl-1H-imidazol-5-yl)methyl)-2′-methyl(1,1′-biphenyl)-2-carbonitrile hydrochloride] | 94% | 
30 | Cn1cncc1C(OCc1cccc(C#N)c1)c1ccc(C#N)c(-c2cccc3ccccc23)c1 (stereo not shown) [Example 262, 4-(((3-cyanobenzyl)oxy)(1-methyl-1H-imidazol-5-yl)methyl)-2-(1-naphthyl)benzonitrile] | 100% | 
31 | COC(=O)c1cccc(COC(c2ccc(C#N)c(-c3ccccc3C)c2)c2cncn2C)c1 (stereo not shown) [Example 146, methyl 3-(((6-cyano-2′-methyl(1,1′-biphenyl)-3-yl)(1-methyl-1H-imidazol-5-yl)methoxy)methyl)benzoate hydrochloride] | 93% | 
32 | CCOCn1cncc1C(OCc1ccccc1)c1ccc(C#N)c(-c2cccc3ccccc23)c1 (stereo not shown) [Example 105, 4-((benzyloxy)(1-(ethoxymethyl)-1H-imidazol-5-yl)methyl)-2-(1-naphthyl)benzonitrile hydrochloride] | 82% | 
33 | Cn1cncc1CN(Cc1ccc(C#N)c(-c2cccc3ccccc23)c1)C(=O)c1ccc(C#N)cc1 [Example 196, 4-cyano-N-(4-cyano-3-(1-naphthyl)benzyl)-N-((1-methyl-1H-imidazol-5-yl)methyl)benzamide] | 90% | 
34 | Cc1ccccc1-c1cc(C(OCc2ccc(Cl)cc2[N+](=O)[O-])c2cncn2C)ccc1C#N (stereo not shown) [Example 164, 5-(((4-chloro-2-nitrobenzyl)oxy)(1-methyl-1H-imidazol-5-yl)methyl)-2′-methyl(1,1′-biphenyl)-2-carbonitrile hydrochloride] | 99% | 
